Consider twelve molecules from US7476691B2, “Sulfamate benzothiophene derivatives as steroid sulfatase inhibitors” (Laboratoire Theramex, priority 2003, dated 2009).

One series addresses T1, estrone sulfatase (Homo sapiens, UniProt P08842).
T1 sequence (P08842 22-583): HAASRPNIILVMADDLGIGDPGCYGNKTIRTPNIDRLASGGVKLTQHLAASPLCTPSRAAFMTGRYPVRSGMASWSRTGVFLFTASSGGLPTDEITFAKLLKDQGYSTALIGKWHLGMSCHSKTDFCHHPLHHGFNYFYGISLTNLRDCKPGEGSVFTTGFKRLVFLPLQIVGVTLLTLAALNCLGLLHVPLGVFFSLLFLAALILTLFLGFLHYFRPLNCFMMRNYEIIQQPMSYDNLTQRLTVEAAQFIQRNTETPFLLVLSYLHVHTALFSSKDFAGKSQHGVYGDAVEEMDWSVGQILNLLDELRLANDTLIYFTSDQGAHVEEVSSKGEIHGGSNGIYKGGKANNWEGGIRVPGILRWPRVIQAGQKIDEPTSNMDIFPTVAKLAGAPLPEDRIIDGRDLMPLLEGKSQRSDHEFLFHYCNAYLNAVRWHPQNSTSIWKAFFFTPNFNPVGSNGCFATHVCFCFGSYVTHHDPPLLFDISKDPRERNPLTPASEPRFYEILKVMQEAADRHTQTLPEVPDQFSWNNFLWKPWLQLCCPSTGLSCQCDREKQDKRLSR
Put plainly: Estrone sulfatase whole-cell assay on JEG-3 cells. It counts as cell-based. The arrangement: The JEG-3 cell line, derived from a human placental choriocarcinoma, is spontaneously very rich in human estrone sulfatase; endogenous in cells; host or cells: JEG-3 (human placental choriocarcinoma), intact cells. The note with it: 4 h treatment, 3H-E1S, read-out: IC50 (nM) ± S.E.M., inhibition of estrone sulfatase. As to the method: Two in vitro models on whole cells were used. […] Moreover, these cells were used in the in vivo model of hormono-dependent induced xenografts.
Estrone Sulfatase Assay on Cells
Whole-cell assays were performed as originally described by Duncan et al. (Cancer Res., 1993, 53: 298-303) on intact MCF-7 cell monolayers. Assays were carried out with cells in logarithmic growth phase, on 96-well (JEG-3) or 24-well (MCF-7) microplates. Twenty-four hours (JEG-3) or 72 h (MCF-7) before studies, cells were seeded in decomplemented fetal calf serum (dFCS) supplemented medium. Then, the seeding medium was removed and the cells were rinsed with PBS to eliminate any trace of dFCS. Then, ^3H-E1S was added, followed by test compounds ranging from 10^−12 M to 10^−5 M. After 4 h (JEG-3) or 20 h (MCF-7) of treatment, the medium was transferred into either 96-deep-well microplates (JEG-3) or plastic tubes (MCF-7) and centrifuged at 200×g for 10 min to pellet cells before toluene extraction. A fraction of medium was used for toluene extraction in order to separate conjugated substrate and non-conjugated products. The radioactivity in the toluene phase was measured by liquid scintillation counting (LSC). Finally, estrone sulfatase activity was expressed in pmoles of ^3H-E1+^3H-E2 formed per 4 or 20 hours and per μg DNA and estrone sulfatase inhibition in percentage of control activity without inhibitor.
The IC50 is the concentration needed to halve the response being measured. For the molecule `NS(=O)(=O)Oc1ccc2c3c(sc2c1)CCCC3` [Ex 64, Sulfamic acid, 1,2,3,4-tetrahydro-dibenzothiophene-7-yl ester], the IC50 turned out to be 566 ± 130 nM. On the same count and under the same terms, next, `NS(=O)(=O)Oc1ccc2cc(C3CCCCCCC3)sc2c1` [Ex 32, Sulfamic acid, 2-cyclooctyl-benzothiophene-6-yl ester]: 434 ± 94.8 nM; `CC1CCCCC1c1cc2ccc(OS(N)(=O)=O)cc2s1` (stereo not shown) [Ex 35, Sulfamic acid, 2-(2-methylcyclohexyl)-benzothiophene-6-yl ester]: 147 ± 16.3 nM. As for `NS(=O)(=O)Oc1ccc2cc(C3CCCCCCCCC3)sc2c1` [Ex 33, Sulfamic acid, 2-cyclodecyl-benzothiophene-6-yl ester], the IC50 stood at 744 ± 140 nM.

Regarding `CCCCCCC1=Cc2ccc(OS(N)(=O)=O)cc2S1(=O)=O` [Ex 53, Sulfamic acid, 2-hexyl-benzothiophene-6-yl-1,1-dioxide ester], the IC50 turned out to be 12.5 ± 3.3 nM.

System in a further series: not given
Assay: not given
Conditions: not given
The term melting point denotes the temperature, or range, at which the solid turns liquid. Molecule `NS(=O)(=O)Oc1ccc2cc(CC3CCCCC3)sc2c1` [Ex 40, Sulfamic acid, 2-cyclohexylmethyl-benzothiophene-6-yl ester] showed a melting point of 115 °C. Same read-out and setting: in the case of `NS(=O)(=O)Oc1ccc2cc(CC3CCCCCC3)sc2c1` [Ex 41, Sulfamic acid, 2-cycloheptylmethyl-benzothiophene-6-yl ester] it was 90 °C.

With `CC1(C)CCCC1C1=Cc2ccc(OS(N)(=O)=O)cc2S1(=O)=O` (stereo not shown) [Ex 50, Sulfamic acid, 2-(2,2-dimethylcyclopentyl)-benzothiophene-6-yl-1,1-dioxide ester], the melting point was 172 °C. The same measure, in the same setting: next, `NS(=O)(=O)Oc1ccc2c3c(sc2c1)CCCC3` [Ex 64, Sulfamic acid, 1,2,3,4-tetrahydro-dibenzothiophene-7-yl ester]: 165 °C.

Take `CCCc1cc2ccc(OS(N)(=O)=O)cc2s1` [Ex 38, Sulfamic acid, 2-propyl-benzothiophene-6-yl ester]: the melting point amounted to 112 °C. Same read-out and setting: next, `NS(=O)(=O)Oc1ccc2cc(C3CCCCCCC3)sc2c1` [Ex 32, Sulfamic acid, 2-cyclooctyl-benzothiophene-6-yl ester]: 126 °C. The molecule `CC1CCCCC1c1cc2ccc(OS(N)(=O)=O)cc2s1` (stereo not shown) [Ex 35, Sulfamic acid, 2-(2-methylcyclohexyl)-benzothiophene-6-yl ester] came in with a melting point of 110 °C. Same read-out and setting: in the case of `CC1CCCCC1C1=Cc2ccc(OS(N)(=O)=O)cc2S1(=O)=O` (stereo not shown) [Ex 49, Sulfamic acid, 2-(2-methylcyclohexyl)-benzothiophene-6-yl-1,1-dioxide ester] it was 92 °C; in that of `Cc1c(OS(N)(=O)=O)ccc2cc(C3CCCCCC3)sc12` [Ex 62, Sulfamic acid, 2-cycloheptyl-7-methyl-benzothiophene-6-yl ester], 107 °C; in that of `NS(=O)(=O)Oc1ccc2cc(C3CCCCCCCCC3)sc2c1` [Ex 33, Sulfamic acid, 2-cyclodecyl-benzothiophene-6-yl ester], 98 °C. `CCCCCCc1cc2ccc(OS(N)(=O)=O)cc2s1` [Ex 39, Sulfamic acid, 2-hexyl-benzothiophene-6-yl ester] returned a melting point of 125 °C. On the same count and under the same terms, in the case of `CCCCCCC1=Cc2ccc(OS(N)(=O)=O)cc2S1(=O)=O` [Ex 53, Sulfamic acid, 2-hexyl-benzothiophene-6-yl-1,1-dioxide ester] it was 98 °C.

Another series concerns prepubescent female rats. Put plainly: Residual estrogenic activity in vivo (uterotrophic assay). The note with it: prepubescent female rats, oral, 1 mg/rat/day for 3 days.
Description: These compounds were checked for residual estrogenic activity in vivo in the classical uterotrophic assay after 3-day administration by oral route in prepubescent female rats.
Prepubescent female rats were orally treated at 1 mg/rat/day for 3 days. On the day following the last treatment, uteri were removed and wet weight were recorded.
The results are expressed as % of stimulation of uterus weight in comparison with controls.
As for `CC1(C)CCCC1C1=Cc2ccc(OS(N)(=O)=O)cc2S1(=O)=O` (stereo not shown) [Ex 50, Sulfamic acid, 2-(2,2-dimethylcyclopentyl)-benzothiophene-6-yl-1,1-dioxide ester], the “% stimulation of uterus weight in comparison with controls” value is 24%. Still for that read-out and setting: in the case of `CC1CCCCC1C1=Cc2ccc(OS(N)(=O)=O)cc2S1(=O)=O` (stereo not shown) [Ex 49, Sulfamic acid, 2-(2-methylcyclohexyl)-benzothiophene-6-yl-1,1-dioxide ester] it was 8%.
